From PMC5566973 (Frontiers in Pharmacology, 2017)

Key:
[1] = system: MRP2; assay: in vitro; conditions: human, Caco-2, PappAB
Protocol: (§1) Caco-2, MDCK and MDCK-MRP2 cells were donated by Prof. Yan Xie and Yueming Ma from Shanghai University of Traditional Chinese Medicine. The cells were grown in culture dishes (Corning® Costar, Cambridge, MA, USA) using DMEM supplemented with 10% FBS, 1% NEAA and 1% penicillin-streptomycin solution. The cells were cultured in 5% CO2 and […] with 90% relative humidity at 37°C. The medium was replaced every other day during incubation. The cells were passaged every 3–4 days between 70 and 80% confluence at a 1:5 split ratio using 0.25% trypsin-EDTA. For the transport experiments, the cells from passages between 30 and 45 were seeded at 1 × 10^5 cells/cm^2 onto permeable polycarbonate inserts (0.45 μm pore size, seeding surface of 0.6 cm^2, Millipore, MA, USA) in 24-well plastic plates. The media in the culture plates were changed every other day for the first week after seeding and were replaced daily afterward. […] The cells were used for the transport experiments 21–28 (Caco-2) or 5–7 (MDCK and MDCK-MRP2) days after seeding, and only monolayers with a TEER-value above 420 Ω cm^2 were used during the studies.
(§2) The apical (AP) and basolateral (BL) sides are typical of polarized Caco-2, MDCK and MDCK-MRP2 epithelial cells. Before the experiments, the polarized cell monolayers were washed twice with warm HBSS solution and subsequently preincubated (37°C, 30 min). Afterward, HBSS solution on both sides of the cell monolayers was removed using a mini desktop vacuum pump. […] The final DMSO concentration in the HBSS or drug mixture was below 0.5%. The monolayers were incubated at 37°C, and 100 μL samples were taken at 30, 60, 90, and 120 min from the acceptor compartment and immediately replaced with the same volume of prewarmed fresh blank HBSS. TEER measurements for assessing the membrane integrity took place before and after the experiments.
(§3) The apparent permeability coefficients (Papp) and ER were calculated as Equations (2) and (3): […]
(§4) where dQ/dt is the steady-state flux, A is the membrane surface area, and C0 is the initial drug concentration in the donor compartment. PappBA is the Papp-value measured in BL to AP direction and PappAB is the Papp-value measured in AP to BL direction. It indicated the involvement of an active transport process when the ER-value is above 1.5 (Hubatsch et al., [2007]).

[2] = system: MDR1; assay: in vitro; conditions: human, Caco-2, PappBA, Caco-2, 2 μM
Protocol: as §1, §2, §3, §4

[3] = system: Caco-2 cell monolayers; assay: in vitro
Protocol: as §1, §2, §3, §4

[4] = system: PEPT1; assay: in vitro; conditions: human, Caco-2, PappAB
Protocol: as §1, §2, §3, §4

[5] = system: BCRP; assay: in vitro; conditions: human, Caco-2, PappAB
Protocol: as §1, §2, §3, §4

[6] = in vitro
Protocol: as §1, §2, §3, §4

[7] = system: ATP (adenosine triphosphate); assay: in vitro; conditions: human, Caco-2, PappAB
Protocol: as §1, §2, §3, §4

[8] = system: Na+/K+-ATPase; assay: in vitro; conditions: human
Protocol: as §1, §2, §3, §4

[9] = system: MDCK cell monolayers; assay: in vitro
Protocol: as §1, §2, §3, §4

[10] = system: OATs; assay: in vitro; conditions: human, Caco-2, PappBA, Caco-2, 2 μM, + Cimetidine 0.05 mM (OATs)
Protocol: as §1, §2, §3, §4

[11] = Caco-2, 2 μM, + Apigenin 0.025 mM (BCRP)
[12] = Caco-2, 2 μM, + ES 0.05 mM (OATPs)
[13] = Caco-2, 2 μM, + Gly-Sar 10 mM (PEPT1)
[14] = Caco-2, 2 μM, + Ko143 0.01 mM (BCRP)
[15] = Caco-2, 2 μM, + MK571 0.05 mM (MRP2)
[16] = Caco-2, 2 μM, + NaN3 10 mM (ATP)
[17] = Caco-2, 2 μM, + Phloretin 0.3 mM (MCTs)
[18] = Caco-2, 2 μM, + Phloridzin 0.5 mM (SGLT1)
[19] = Caco-2, 2 μM, + Probenecid 0.2 mM (MRP2)
[20] = Caco-2, 2 μM, + TEA 5 mM (OCTs/OCTNs)
[21] = Caco-2, 2 μM, Control (no inhibitor or substrate)

COc1ccc2c(c1)[nH]c1c(C)nccc12 [Harmine]
Papp A→B [1]: 29.9 ± 2.14 ×10⁻⁶ cm/s
Papp B→A ([2]; + Quinidine 0.1 mM (MDR1)): 29 ± 3.96 ×10⁻⁶ cm/s
Papp B→A ([2]; + Verapamil 0.1 mM (MDR1)): 28.5 ± 3.77 ×10⁻⁶ cm/s
PappAB ([3]; Caco-2, 2 μM, 4°C): 1.58 ± 0.57 1 × 10^−6 cm/s
Modulatory effect [3, 11]: −
PappBA [3, 11]: 28.40 ± 4.27 1 × 10^−6 cm/s
Modulatory effect ([3]; Caco-2, 2 μM, + Cimetidine 0.05 mM (OATs)): −
Modulatory effect [3, 12]: +
PappAB [3, 12]: 14.64 ± 1.31 1 × 10^−6 cm/s
PappBA [3, 12]: 28.43 ± 1.89 1 × 10^−6 cm/s
Modulatory effect [3, 13]: −
PappBA [3, 13]: 27.86 ± 1.96 1 × 10^−6 cm/s
Modulatory effect [3, 14]: −
PappBA [3, 14]: 27.96 ± 3.86 1 × 10^−6 cm/s
Modulatory effect [3, 15]: +
PappBA [3, 15]: 29.36 ± 2.73 1 × 10^−6 cm/s
Modulatory effect [3, 16]: +
PappBA [3, 16]: 27.94 ± 1.76 1 × 10^−6 cm/s
Modulatory effect [3, 17]: −
PappBA [3, 17]: 27.37 ± 2.13 1 × 10^−6 cm/s
Modulatory effect [3, 18]: −
PappBA [3, 18]: 29.39 ± 1.30 1 × 10^−6 cm/s
Modulatory effect [3, 19]: +
PappBA [3, 19]: 27.93 ± 2.33 1 × 10^−6 cm/s
Modulatory effect ([3]; Caco-2, 2 μM, + Quinidine 0.1 mM (MDR1)): −
Modulatory effect ([3]; Caco-2, 2 μM, + Sodium vanadate 0.05 mM (Na^+)): +
Modulatory effect [3, 20]: +
PappBA [3, 20]: 28.05 ± 1.20 1 × 10^−6 cm/s
Modulatory effect ([3]; Caco-2, 2 μM, + Verapamil 0.1 mM (MDR1)): −
PappAB [3, 21]: 18.52 ± 2.06 1 × 10^−6 cm/s
PappBA [3, 21]: 29.40 ± 1.38 1 × 10^−6 cm/s
PappBA ([3]; Caco-2, 2 μM, Control (pH 7.4, 37°C, without EDTA)): 29.34 ± 1.21 1 × 10^−6 cm/s
PappBA ([3]; Caco-2, 2 μM, with EDTA 5 mM): 29.67 ± 2.22 1 × 10^−6 cm/s
increase of PappAB ([3]; Caco-2, + MK571 vs control): 1.62 folds
increase of PappAB ([3]; Caco-2, + probenecid vs control): 1.27 folds
ER-values at the tested concentrations ([3]; Caco-2 and MDCK, 1, 2, and 5 μM): > 1.5
PappAB ([3]; human, Caco-2): 24.11 ± 2.53^* 1 × 10^−6 cm/s
PappAB ([3]; human, Caco-2, pH 7.4): 18.78 ± 1.26 1 × 10^−6 cm/s
Papp A→B [4]: 18.3 ± 1.28 ×10⁻⁶ cm/s
Papp A→B [5]: 19 ± 3.67 ×10⁻⁶ cm/s
Papp A→B ([6]; dog, MDCK, PappAB, initial concentration 1 μM): 3.7 ± 0.14 ×10⁻⁶ cm/s
Papp A→B ([6]; dog, MDCK, PappAB, initial concentration 2 μM): 4.6 ± 0.25 ×10⁻⁶ cm/s
Papp A→B ([6]; dog, MDCK, PappAB, initial concentration 5 μM): 7.11 ± 0.89 ×10⁻⁶ cm/s
Papp B→A ([6]; dog, MDCK, PappBA, initial concentration 1 μM): 5.81 ± 0.19 ×10⁻⁶ cm/s
Papp B→A ([6]; dog, MDCK, PappBA, initial concentration 2 μM): 7.32 ± 0.19 ×10⁻⁶ cm/s
Papp B→A ([6]; dog, MDCK, PappBA, initial concentration 5 μM): 11.6 ± 0.15 ×10⁻⁶ cm/s
Papp A→B ([6]; dog, MDCK, pH 5.5, PappAB, 2 μM, pH 5.5): 2.24 ± 0.29 ×10⁻⁶ cm/s
Papp B→A ([6]; dog, MDCK, pH 5.5, PappBA, 2 μM, pH 5.5): 3.42 ± 0.48 ×10⁻⁶ cm/s
Papp A→B ([6]; human, Caco-2, PappAB, Caco-2, 2 μM, 4°C): 1.58 ± 0.57 ×10⁻⁶ cm/s
Papp A→B ([6]; human, Caco-2, PappAB, Caco-2, initial concentration 1 μM): 15.1 ± 0.73 ×10⁻⁶ cm/s
Papp A→B ([6]; human, Caco-2, PappAB, Caco-2, initial concentration 2 μM): 18.8 ± 1.26 ×10⁻⁶ cm/s
Papp A→B ([6]; human, Caco-2, PappAB, Caco-2, initial concentration 5 μM): 31.1 ± 1.42 ×10⁻⁶ cm/s
Papp B→A ([6]; human, Caco-2, PappBA, Caco-2, 2 μM, 4°C): 2.41 ± 0.85 ×10⁻⁶ cm/s
Papp B→A ([6]; human, Caco-2, PappBA, Caco-2, initial concentration 1 μM): 22.8 ± 0.25 ×10⁻⁶ cm/s
Papp B→A ([6]; human, Caco-2, PappBA, Caco-2, initial concentration 2 μM): 29.3 ± 1.21 ×10⁻⁶ cm/s
Papp B→A ([6]; human, Caco-2, PappBA, Caco-2, initial concentration 5 μM): 48.3 ± 2.81 ×10⁻⁶ cm/s
Papp A→B ([6]; human, Caco-2, pH 5.5, PappAB, Caco-2, 2 μM, pH 5.5): 5.27 ± 0.29 ×10⁻⁶ cm/s
Papp B→A ([6]; human, Caco-2, pH 5.5, PappBA, Caco-2, 2 μM, pH 5.5): 4.17 ± 1.03 ×10⁻⁶ cm/s
Papp A→B [7]: 14.1 ± 0.39 ×10⁻⁶ cm/s
Papp A→B ([8]; Caco-2, PappAB): 13.1 ± 0.93 ×10⁻⁶ cm/s
Papp B→A ([8]; Caco-2, PappBA, Caco-2, 2 μM, + Sodium vanadate 0.05 mM (Na^+)): 26.2 ± 1.78 ×10⁻⁶ cm/s
PappAB ([9]; 2 μM, 4°C): 1.85 ± 0.55^*** 1 × 10^−6 cm/s
PappAB ([9]; 2 μM, Control (pH 7.4, 37°C, without EDTA)): 4.60 ± 0.25 1 × 10^−6 cm/s
PappAB ([9]; 2 μM, with EDTA 5 mM): 7.47 ± 1.31^* 1 × 10^−6 cm/s
PappBA ([9]; 2 μM, with EDTA 5 mM): 8.98 ± 0.90 1 × 10^−6 cm/s
PappAB ([9]; 2 μM, with EDTA 5 mM, listed as harmine): 7.47 ± 1.31 1 × 10^−6 cm/s
PappBA ([9]; dog, pH 7.4): 7.32 ± 0.19 1 × 10^−6 cm/s
Papp B→A [10]: 27.6 ± 1.54 ×10⁻⁶ cm/s
